The values that follow are results of earlier work, collected in US20040116514A1, “Compositions for preventing human cancer and method of preventing human cancer” (priority 2002, published 2004).

In this data set the test system is humans. The note with it: β-carotene alone administered in large quantities to humans (Omenn et al., 1996).

On to `CC1=C(/C=C/C(C)=C/C=C/C(C)=C/C=C/C=C(C)/C=C/C=C(C)/C=C/C2=C(C)CCCC2(C)C)C(C)(C)CCC1` [β-carotene], for which the “incidence rate of pulmonary cancer” value is reported as “actually rises”.
